Measurements taken from paper PMC7066280 (Investigational New Drugs, 2019).
Like-named read-outs stand apart in the source and are kept apart here.

How the values were obtained:
[1] = Ivosidenib plasma PK after single and multiple 500 mg QD doses (dose expansion); format: in vivo, human; conditions: for Cmax / AUC(0-t) / Tmax: human, plasma, oral, 500 mg
Experimental: (§1) Additional predose samples were taken on cycle 1, day 8; cycle 1, day 15; cycle 3, day 1; and end of treatment.
(§2) Plasma ivosidenib was measured using two validated liquid chromatography-tandem mass spectrometry (LC-MS/MS) methods. The lower limit of quantification (LLOQ) was 1.00 ng/mL (low-range assay) or 50.0 ng/mL (high-range assay). […] Plasma 2-HG concentrations were measured using a qualified LC-MS/MS method with an LLOQ of 30.0 ng/mL. Concentrations of 2-HG in tumor biopsy samples were quantified using qualified LC-MS/MS methods with an LLOQ of 7.5 μg/g for brain tumor homogenate, 100 ng/g for liver tumor homogenate (low-range assay), and 30 μg/g for liver tumor homogenate (high-range assay). Plasma 4β-OHC and cholesterol were measured using a validated LC-MS/MS method. The LLOQ was 5 ng/mL for 4β-OHC and 25 μg/mL for cholesterol in human plasma.
(§3) PK parameters included area under the plasma concentration-time curve (AUC), maximum plasma concentration (Cmax), time to maximum plasma concentration (Tmax), terminal elimination half-life (t1/2), and apparent oral clearance at steady state (CLss/F). Accumulation ratio (Racc), based on Cmax and AUC, was also assessed during the dose escalation portion. PD (2-HG) parameters included baseline-effect value, area under the effect concentration-time curve (AUEC0-10h for the dose escalation portion, or AUEC0-8h for the dose escalation and expansion portions), percent change from baseline in AUEC (%BAUEC0-10h for the escalation portion, or %BAUEC0-8h for the dose escalation and expansion portions), average plasma concentration (Cavg), and percent inhibition for Cavg (%BCavg). For the dose escalation portion, the time-matched ratios of 4β-OHC to cholesterol were calculated.

tumor 2-HG = experiment: 2-HG in paired tumor biopsy samples; format: in vivo; conditions: Homo sapiens; 500 mg QD multiple doses, cycle 3 day 1 and cycle 7 day 1, paired biopsies, 21 patients, all tumor types; read-out: 2-HG inhibition in tumors
Experimental: Tumor biopsies were also collected for 2-HG assessment at screening, and at day 1 of cycle 3. Further biopsies were collected depending on the status of disease at cycle 7, day 1 or at any time that disease progression was suspected and/or at the end of treatment.
as §2

plasma 2-HG = experiment: Plasma 2-HG pharmacodynamics in patients with IDH1-mutant tumors; format: in vivo, human
Experimental: These samples were optional for any further patients enrolled in these cohorts. Further blood samples were collected from all patients up to 10 h postdose on cycle 1, day 15 and cycle 2, day 1. A subset of samples was also used for evaluation of plasma 4β-hydroxycholesterol (4β-OHC) and 4β-OHC:cholesterol ratios. Blood samples for assessment of 2-HG only were also collected at screening.
as §1, §2, §3

Compound: N#Cc1ccnc(N2C(=O)CC[C@H]2C(=O)N(c2cncc(F)c2)[C@H](C(=O)NC2CC(F)(F)C2)c2ccccc2Cl)c1 [ivosidenib]
- Cmax at steady state lower in glioma than in cholangiocarcinoma/chondrosarcoma [1]: ~29%
- Cmax ([1]; expansion cholangiocarcinoma, cycle 1 day 1, geometric mean (geometric CV%)): 3660 ng/mL
- AUC(0-t) ([1]; expansion cholangiocarcinoma, cycle 1 day 1, geometric mean (geometric CV%), read-out: AUC0-8hr): 19700 ng·h/mL
- Tmax ([1]; expansion cholangiocarcinoma, cycle 1 day 1, median (minimum; maximum)): 3.08 h
- Cmax ([1]; expansion cholangiocarcinoma, cycle 2 day 1, geometric mean (geometric CV%)): 4580 ng/mL
- AUC(0-t) ([1]; expansion cholangiocarcinoma, cycle 2 day 1, geometric mean (geometric CV%), read-out: AUC0-8hr): 29000 ng·h/mL
- AUC(0-t) ([1]; expansion cholangiocarcinoma, cycle 2 day 1, geometric mean (geometric CV%), read-out: AUC0-24hr): 75600 ng·h/mL
- Tmax ([1]; expansion cholangiocarcinoma, cycle 2 day 1, median (minimum; maximum)): 2.03 h
- Cmax ([1]; expansion chondrosarcoma, cycle 1 day 1, geometric mean (geometric CV%)): 4260 ng/mL
- AUC(0-t) ([1]; expansion chondrosarcoma, cycle 1 day 1, geometric mean (geometric CV%), read-out: AUC0-8hr): 22900 ng·h/mL
- Tmax ([1]; expansion chondrosarcoma, cycle 1 day 1, median (minimum; maximum)): 2.98 h
- Cmax ([1]; expansion chondrosarcoma, cycle 2 day 1, geometric mean (geometric CV%)): 5300 ng/mL
- AUC(0-t) ([1]; expansion chondrosarcoma, cycle 2 day 1, geometric mean (geometric CV%), read-out: AUC0-8hr): 36200 ng·h/mL
- AUC(0-t) ([1]; expansion chondrosarcoma, cycle 2 day 1, geometric mean (geometric CV%), read-out: AUC0-24hr): 88700 ng·h/mL
- Tmax ([1]; expansion chondrosarcoma, cycle 2 day 1, median (minimum; maximum)): 2.08 h
- Cmax ([1]; expansion enhancing glioma, cycle 1 day 1, geometric mean (geometric CV%)): 3140 ng/mL
- AUC(0-t) ([1]; expansion enhancing glioma, cycle 1 day 1, geometric mean (geometric CV%), read-out: AUC0-8hr): 16000 ng·h/mL
- Tmax ([1]; expansion enhancing glioma, cycle 1 day 1, median (minimum; maximum)): 3.01 h
- Cmax ([1]; expansion enhancing glioma, cycle 2 day 1, geometric mean (geometric CV%)): 3800 ng/mL
- AUC(0-t) ([1]; expansion enhancing glioma, cycle 2 day 1, geometric mean (geometric CV%), read-out: AUC0-8hr): 24400 ng·h/mL
- AUC(0-t) ([1]; expansion enhancing glioma, cycle 2 day 1, geometric mean (geometric CV%), read-out: AUC0-24hr): 62600 ng·h/mL
- Tmax ([1]; expansion enhancing glioma, cycle 2 day 1, median (minimum; maximum)): 2.03 h
- Cmax ([1]; expansion non-enhancing glioma, cycle 1 day 1, geometric mean (geometric CV%)): 2790 ng/mL
- AUC(0-t) ([1]; expansion non-enhancing glioma, cycle 1 day 1, geometric mean (geometric CV%), read-out: AUC0-8hr): 14900 ng·h/mL
- Tmax ([1]; expansion non-enhancing glioma, cycle 1 day 1, median (minimum; maximum)): 2.58 h
- Cmax ([1]; expansion non-enhancing glioma, cycle 2 day 1, geometric mean (geometric CV%)): 3540 ng/mL
- AUC(0-t) ([1]; expansion non-enhancing glioma, cycle 2 day 1, geometric mean (geometric CV%), read-out: AUC0-8hr): 22200 ng·h/mL
- AUC(0-t) ([1]; expansion non-enhancing glioma, cycle 2 day 1, geometric mean (geometric CV%), read-out: AUC0-24hr): 55700 ng·h/mL
- Tmax ([1]; expansion non-enhancing glioma, cycle 2 day 1, median (minimum; maximum)): 3.05 h
- Cmax ([1]; expansion other solid tumors, cycle 1 day 1, geometric mean (geometric CV%)): 2290 ng/mL
- AUC(0-t) ([1]; expansion other solid tumors, cycle 1 day 1, geometric mean (geometric CV%), read-out: AUC0-8hr): 13800 ng·h/mL
- Tmax ([1]; expansion other solid tumors, cycle 1 day 1, median (minimum; maximum)): 2.55 h
- Cmax ([1]; expansion other solid tumors, cycle 2 day 1, geometric mean (geometric CV%)): 4130 ng/mL
- AUC(0-t) ([1]; expansion other solid tumors, cycle 2 day 1, geometric mean (geometric CV%), read-out: AUC0-8hr): 25100 ng·h/mL
- AUC(0-t) ([1]; expansion other solid tumors, cycle 2 day 1, geometric mean (geometric CV%), read-out: AUC0-24hr): 62200 ng·h/mL
- Tmax ([1]; expansion other solid tumors, cycle 2 day 1, median (minimum; maximum)): 1.98 h
- Cmax ([1]; expansion overall, cycle 1 day 1, geometric mean (geometric CV%)): 3310 ng/mL
- AUC(0-t) ([1]; expansion overall, cycle 1 day 1, geometric mean (geometric CV%), read-out: AUC0-8hr): 17600 ng·h/mL
- Tmax ([1]; expansion overall, cycle 1 day 1, median (minimum; maximum)): 3 h
- Cmax ([1]; expansion overall, cycle 2 day 1, geometric mean (geometric CV%)): 4210 ng/mL
- AUC(0-t) ([1]; expansion overall, cycle 2 day 1, geometric mean (geometric CV%), read-out: AUC0-8hr): 26600 ng·h/mL
- AUC(0-t) ([1]; expansion overall, cycle 2 day 1, geometric mean (geometric CV%), read-out: AUC0-24hr): 68500 ng·h/mL
- Tmax ([1]; expansion overall, cycle 2 day 1, median (minimum; maximum)): 2.14 h
- inhibition at 500 mg (tumor 2-HG): ≤ 100%
- plasma 2-HG reduction (plasma 2-HG; after multiple doses, patients with cholangiocarcinoma or chondrosarcoma): up to 98%
- plasma 2-HG inhibition compared with baseline (plasma 2-HG; after one week of continuous dosing, cholangiocarcinoma and chondrosarcoma): up to 98%
- plasma 2-HG mean Cavg percent inhibition (BCavg%) (plasma 2-HG; cholangiocarcinoma, 500 mg multiple dose, cycle 1 day 15): 79%
